The target of test [1] is T1, a9a10 nAChR (Homo sapiens, UniProt Q9GZZ6+Q9UGM1). Put plainly: two-electrode voltage-clamp in Xenopus oocytes, inhibition of […] ACh responses. It is filed as cell-based. (In general: Two-electrode voltage clamp holds a large cell at a set potential and records current.)
The target of test [2] is T1, a9a10 nAChR. Described as above. It is filed as cell-based. This is another data set of the same source.
The target of the next test is a9 nAChR (Homo sapiens, UniProt Q9UGM1). The description is as above. Type of test: cell-based.
Another test addresses a7 nAChR (Homo sapiens, UniProt P36544). In words: cell-based.

Read-outs that look alike come from different tables or passages of the source.

For orientation: IC50 means the concentration that inhibits the measured activity by half. High values mean lower potency, low ones higher potency.

T1 sequence (Q9UGM1 23-479): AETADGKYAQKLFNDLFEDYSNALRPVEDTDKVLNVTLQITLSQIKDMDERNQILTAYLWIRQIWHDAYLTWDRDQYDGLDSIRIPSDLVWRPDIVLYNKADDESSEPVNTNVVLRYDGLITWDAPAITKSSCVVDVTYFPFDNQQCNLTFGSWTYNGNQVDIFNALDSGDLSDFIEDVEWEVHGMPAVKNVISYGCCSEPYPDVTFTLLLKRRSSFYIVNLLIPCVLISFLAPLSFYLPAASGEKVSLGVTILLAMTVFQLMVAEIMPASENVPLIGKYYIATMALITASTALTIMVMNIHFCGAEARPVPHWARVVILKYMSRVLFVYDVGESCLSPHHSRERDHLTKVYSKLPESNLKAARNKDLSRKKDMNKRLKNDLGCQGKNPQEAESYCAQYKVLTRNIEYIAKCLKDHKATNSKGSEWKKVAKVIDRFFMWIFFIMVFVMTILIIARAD
T1 sequence (Q9GZZ6 25-450): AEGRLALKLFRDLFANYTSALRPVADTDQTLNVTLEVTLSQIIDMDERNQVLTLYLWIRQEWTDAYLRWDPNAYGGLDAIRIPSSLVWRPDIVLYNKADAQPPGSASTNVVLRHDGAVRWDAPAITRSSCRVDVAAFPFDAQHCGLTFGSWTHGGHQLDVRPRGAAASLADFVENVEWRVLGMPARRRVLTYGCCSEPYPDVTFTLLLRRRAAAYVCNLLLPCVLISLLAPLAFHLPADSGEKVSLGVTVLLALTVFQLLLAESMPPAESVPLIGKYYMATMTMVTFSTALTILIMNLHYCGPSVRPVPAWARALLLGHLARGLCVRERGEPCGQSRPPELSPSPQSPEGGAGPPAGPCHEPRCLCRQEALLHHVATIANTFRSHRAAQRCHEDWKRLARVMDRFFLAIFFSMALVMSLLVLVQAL
Chain of a9 nAChR (Q9UGM1 23-479): as the sequence (Q9UGM1 23-479) above
Chain of a7 nAChR (P36544 23-502): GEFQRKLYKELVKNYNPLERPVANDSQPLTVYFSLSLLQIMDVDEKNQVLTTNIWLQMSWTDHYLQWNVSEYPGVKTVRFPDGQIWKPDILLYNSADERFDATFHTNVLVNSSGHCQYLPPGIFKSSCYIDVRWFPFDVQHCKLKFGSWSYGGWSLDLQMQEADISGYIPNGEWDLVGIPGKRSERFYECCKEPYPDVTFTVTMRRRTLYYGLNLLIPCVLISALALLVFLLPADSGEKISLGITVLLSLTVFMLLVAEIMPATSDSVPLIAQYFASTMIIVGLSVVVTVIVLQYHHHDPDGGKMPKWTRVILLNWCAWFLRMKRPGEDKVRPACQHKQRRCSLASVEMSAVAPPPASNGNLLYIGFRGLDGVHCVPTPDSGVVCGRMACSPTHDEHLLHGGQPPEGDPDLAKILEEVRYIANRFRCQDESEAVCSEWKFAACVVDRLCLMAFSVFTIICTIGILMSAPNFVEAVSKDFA

As to `CC[N+]1(CC)CCN(c2cccc(C#N)c2)CC1` [mCN-diEPP, 4-(3-cyanophenyl)-1,1-diethylpiperazin-1-ium], the IC50 at a9a10 nAChR [1] amounted to 17100 ± 1540 nM.

As for `CCN1C[C@]2(COC(=O)c3ccccc3N3C(=O)C[C@H](C)C3=O)CC[C@H](OC)[C@@]34[C@@H]5C[C@H]6[C@H](OC)[C@@H]5[C@](O)(C[C@@H]6OC)[C@@](O)([C@@H](OC)[C@H]23)[C@@H]14` [methyllycaconitine], the IC50 is 240 ± 130 nM at a9a10 nAChR [2], 190 ± 20 nM on a9 nAChR and 120 ± 50 nM against a7 nAChR.

For `CN1CCC[C@H]1c1cccnc1` [nicotine], at a9a10 nAChR [1], the IC50 is 437000 ± 73000 nM.
